From PubChem BioAssay AID1259411 (Chemical Carcinogenesis Research Information System (CCRIS), 2018)
Activity calls are given as the source filed them. How the calls were made is not given here.

Tested on: rodent carcinogenicity bioassays, tumor incidence
Test: CCRIS carcinogenicity studies
Procedure, shortened: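 NCI-built, expert-reviewed records of carcinogenicity and related test outcomes (mutagenicity, tumor promotion/inhibition) compiled from published and report sources, historical span 1985-2011, not updated.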

ClC1=C(Cl)[C@]2(Cl)[C@@H]3[C@@H]4C[C@@H]([C@H]5O[C@@H]45)[C@@H]3[C@@]1(Cl)C2(Cl)Cl
carcinogen call (Species: MOUSE, Strain/Sex: B6C3F1/FEMALE, Route: ORAL, Dose: 0, 2.5, 5 PPM IN DIET FOR 80 WK (STUDY DURATION: 90-93 WK), Dose: 0, 2.5, 5 PPM IN DIET FOR 80 WK (STUDY DURATION: 90-93 WK)): inactive; negative | carcinogen call (Species: MOUSE, Strain/Sex: B6C3F1/MALE, Route: ORAL, Dose: 0, 2.5, 5 PPM IN DIET FOR 80 WK (STUDY DURATION: 90-93 WK), Dose: 0, 2.5, 5 PPM IN DIET FOR 80 WK (STUDY DURATION: 90-93 WK), Tumor Site: Type of Lesion: LIVER: HEPATOCELLULAR CARCINOMA): equivocal | carcinogen call (Species: MOUSE, Strain/Sex: B6C3F1/MALE, Route: ORAL, Dose: 0, 2.5, 5 PPM IN DIET FOR 80 WK (STUDY DURATION: 91-93 WK), Dose: 0, 2.5, 5 PPM IN DIET FOR 80 WK (STUDY DURATION: 91-93 WK), Tumor Site: Type of Lesion: LIVER: HEPATOCELLULAR CARCINOMA): active; positive | carcinogen call (Species: MOUSE, Strain/Sex: B6C3F1/MALE, Route: ORAL, Dose: 0, 10 PPM IN DIET FOR 85 WK (STUDY DURATION: 132 WK), Tumor Site: Type of Lesion: LIVER: TUMORS): active; positive | carcinogen call (Species: MOUSE, Strain/Sex: BALB/MALE, Route: ORAL, Dose: 0, 10 PPM (WT/WT) IN CORN OIL ADDED TO DIET FOR 75 WK (STUDY DURATION: 75 WK), Tumor Site: Type of Lesion: LIVER: HEPATOCELLULAR ADENOMA, HEPATOCELLULAR CARCINOMA): active; positive | carcinogen call (Species: MOUSE, Strain/Sex: C3H/MALE, Route: ORAL, Dose: 0, 10 PPM IN DIET FOR 85 WK (STUDY DURATION: 132 WK), Tumor Site: Type of Lesion: LIVER: TUMORS): active; positive | carcinogen call (Species: MOUSE, Strain/Sex: C57BL/MALE, Route: ORAL, Dose: 0, 10 PPM IN DIET FOR 85 WK (STUDY DURATION: 132 WK), Tumor Site: Type of Lesion: LIVER: TUMORS): active; positive | carcinogen call (Species: MOUSE, Strain/Sex: CF-1/MALE,FEMALE, Route: ORAL, Dose: 0, 0.1, 1, 2.5, 5, 10, 20 PPM IN DIET CONTINUOUSLY, Dose: 0, 0.1, 1, 2.5, 5, 10, 20 PPM IN DIET CONTINUOUSLY, Tumor Site: Type of Lesion: LIVER): active; positive | carcinogen call (Species: MOUSE, Strain/Sex: CF-1/MALE,FEMALE, Route: ORAL, Dose: 0, 0.1, 1.0, 10 PPM IN DIET FOR 132 WK, Dose: 0, 0.1, 1.0, 10 PPM IN DIET FOR 132 WK, Tumor Site: Type of Lesion: LIVER): active; positive | carcinogen call (Species: MOUSE, Strain/Sex: CF-1/MALE,FEMALE, Route: ORAL, Dose: 0, 1.25, 2.5, 5, 10, 20 PPM IN DIET FOR 128 WK, Dose: 0, 1.25, 2.5, 5, 10, 20 PPM IN DIET FOR 128 WK, Tumor Site: Type of Lesion: LIVER): active; positive | carcinogen call (Species: MOUSE, Strain/Sex: CF-1/MALE,FEMALE, Route: ORAL, Dose: 0, 10 PPM IN DIET FOR 2 YR OR MORE, Tumor Site: Type of Lesion: LIVER): active; positive | carcinogen call (Species: MOUSE, Strain/Sex: CF-1/MALE,FEMALE, Route: ORAL, Dose: 0, 10 PPM IN DIET FOR UP TO 110 WK, Tumor Site: Type of Lesion: LIVER: HEPATOCELLULAR TUMOR): active; positive | carcinogen call (Species: MOUSE, Strain/Sex: CF-1/MALE,FEMALE, Route: ORAL, Dose: 10 PPM IN DIET FOR 0, 2, 4, 8, 16, 32 OR 64 WK, Tumor Site: Type of Lesion: LIVER: HEPATOCELLULAR TUMOR): active; positive | carcinogen call (Species: RAT, Strain/Sex: OSBORNE-MENDEL/FEMALE, Route: ORAL, Dose: 0, 29, 65 PPM TWA, IN DIET FOR 59-80 WK (STUDY DURATION: 110-111 WK), Dose: 0, 29, 65 PPM TWA, IN DIET FOR 59-80 WK (STUDY DURATION: 110-111 WK)): inactive; negative | carcinogen call (Species: RAT, Strain/Sex: OSBORNE-MENDEL/MALE, Route: ORAL, Dose: 0, 29, 65 PPM TWA, IN DIET FOR 59-80 WK (STUDY DURATION: 110-111 WK), Dose: 0, 29, 65 PPM TWA, IN DIET FOR 59-80 WK (STUDY DURATION: 110-111 WK)): inactive; negative

ClC(Cl)(Cl)Cl
carcinogen call (Species: FISH, Strain/Sex: RAINBOW TROUT, Route: INTRAPERITONEAL, Dose: 0, 1 ML/KG AT 21 D INTERVALS FOR A TOTAL OF 7 DOSES (STUDY DURATION: 6 MO)): inactive; negative | carcinogen call (Species: MOUSE, Route: ORAL, GAVAGE, Tumor Site: Type of Lesion: LIVER: HEPATOMA, HEPATOCELLULAR CARCINOMA): active; positive | carcinogen call (Species: Mouse, Strain/Sex: BDF1/Female (50/group), Route: Inhalation, Dose: 0, 5, 25, 125 ppm (v/v) 6 hr/d, 5 d/wk for 104 wk, Dose: 0, 5, 25, 125 ppm (v/v) 6 hr/d, 5 d/wk for 104 wk, Tumor Site: Type of Lesion: Liver: hepatocellular carcinoma (2/50; 1/49; 33/50; 48/49), hepatocellular adenoma (2/50; 8/49; 17/50; 5/49). Adrenal Gl, Tumor Site: Type of Lesion: Liver: hepatocellular carcinoma (2/50; 1/49; 33/50; 48/49), hepatocellular adenoma (2/50; 8/49; 17/50; 5/49). Adrenal Gl): active; positive | carcinogen call (Species: Mouse, Strain/Sex: BDF1/Male (50/group), Route: Inhalation, Dose: 0, 5, 25, 125 ppm (v/v) 6 hr/d, 5 d/wk for 104 wk, Dose: 0, 5, 25, 125 ppm (v/v) 6 hr/d, 5 d/wk for 104 wk, Tumor Site: Type of Lesion: Liver: hepatocellular carcinoma (17/50; 12/50; 44/50; 47/50), hepatocellular adenoma (9/50; 10/50; 27/50; 16/50). Adrena, Tumor Site: Type of Lesion: Liver: hepatocellular carcinoma (17/50; 12/50; 44/50; 47/50), hepatocellular adenoma (9/50; 10/50; 27/50; 16/50). Adrena): active; positive (dose related metastasis of liver tumors to lung) | carcinogen call (Species: RAT, Route: SUBCUTANEOUS, Tumor Site: Type of Lesion: LIVER: HEPATOCELLULAR CARCINOMA): active; positive | carcinogen call (Species: Rat, Strain/Sex: F344/Female (50/group), Route: Inhalation, Dose: 0, 5, 25, 125 ppm (v/v) 6 hr/d, 5 d/wk for 104 wk, Dose: 0, 5, 25, 125 ppm (v/v) 6 hr/d, 5 d/wk for 104 wk, Tumor Site: Type of Lesion: Liver: hepatocellular carcinoma (0/50; 0/50; 3/50; 15/50), hepatocellular adenoma (0/50; 0/50; 40/50), Tumor Site: Type of Lesion: Liver: hepatocellular carcinoma (0/50; 0/50; 3/50; 15/50), hepatocellular adenoma (0/50; 0/50; 40/50)): active; positive | carcinogen call (Species: Rat, Strain/Sex: F344/Male (50/group), Route: Inhalation, Dose: 0, 5, 25, 125 ppm (v/v) 6 hr/d, 5 d/wk for 104 wk, Dose: 0, 5, 25, 125 ppm (v/v) 6 hr/d, 5 d/wk for 104 wk, Tumor Site: Type of Lesion: Liver: hepatocellular carcinoma (1/50; 0/50; 32/50), hepatocellular adenoma (0/50; 1/50; 21/50), Tumor Site: Type of Lesion: Liver: hepatocellular carcinoma (1/50; 0/50; 32/50), hepatocellular adenoma (0/50; 1/50; 21/50)): active; positive

C[C@]12CC[C@H](O)CC1=CC[C@@H]1[C@@H]2CC[C@]2(C)C(=O)CC[C@@H]12
carcinogen call (Species: FISH, Strain/Sex: RAINBOW TROUT/MALE, FEMALE, Route: ORAL, Dose: 0, 55, 111, 222, 444, 888 PPM IN DIET 1/D 5 D/WK FOR 42 WK (STUDY DURATION: 42 WK), Dose: 0, 55, 111, 222, 444, 888 PPM IN DIET 1/D 5 D/WK FOR 42 WK (STUDY DURATION: 42 WK), Tumor Site: Type of Lesion: LIVER: TUMOR): active; positive | carcinogen call (Species: FISH, Strain/Sex: RAINBOW TROUT/MALE,FEMALE, Route: ORAL, Dose: 0, 55, 111, 222, 444, 888 PPM IN DIET FOR 7 MO (STUDY DURATION: 10 MO), Dose: 0, 55, 111, 222, 444, 888 PPM IN DIET FOR 7 MO (STUDY DURATION: 10 MO), Tumor Site: Type of Lesion: LIVER: TUMOR): active; positive | carcinogen call (Species: RAT, Strain/Sex: F344/MALE, Route: ORAL, Dose: 0, 0.45% (WEIGHT/WEIGHT) IN SEMIPURIFIED DIET OIL STRIPPED OF VITAMIN E FOR STUDY DURATION, (STUDY DURATION: 84 WK), Dose: 0, 0.45% (WEIGHT/WEIGHT) IN SEMIPURIFIED DIET OIL STRIPPED OF VITAMIN E FOR STUDY DURATION, (STUDY DURATION: 84 WK), Tumor Site: Type of Lesion: LIVER: HEPATOCELLULAR CARCINOMA): active; positive | carcinogen call (Species: RAT, Strain/Sex: F344/MALE, Route: ORAL, Dose: 0, 0.5, 1% IN DIET FOR 78 WK (STUDY DURATION: 78 WK), Dose: 0, 0.5, 1% IN DIET FOR 78 WK (STUDY DURATION: 78 WK), Tumor Site: Type of Lesion: LIVER: NEOPLASM): active; positive

CCN(CC)C(=O)/C(Cl)=C(\C)OP(=O)(OC)OC
carcinogen call (Species: MOUSE, Strain/Sex: B6C3F1/FEMALE, Route: ORAL, Dose: 0, 80, 160 PPM IN DIET, Dose: 0, 80, 160 PPM IN DIET): inactive; negative | carcinogen call (Species: MOUSE, Strain/Sex: B6C3F1/MALE, Route: ORAL, Dose: 0, 80, 160 PPM IN DIET, Dose: 0, 80, 160 PPM IN DIET): inactive; negative | carcinogen call (Species: RAT, Strain/Sex: OSBORNE-MENDEL/FEMALE, Route: ORAL, Dose: 0, 80, 160 PPM IN DIET FOR 80 WK (STUDY DURATION: 111 WK), Dose: 0, 80, 160 PPM IN DIET FOR 80 WK (STUDY DURATION: 111 WK), Tumor Site: Type of Lesion: THYROID GLAND: C-CELL ADENOMA OR CARCINOMA): equivocal | carcinogen call (Species: RAT, Strain/Sex: OSBORNE-MENDEL/MALE, Route: ORAL, Dose: 0, 80, 160 PPM IN DIET FOR 80 WK (STUDY DURATION: 111 WK), Dose: 0, 80, 160 PPM IN DIET FOR 80 WK (STUDY DURATION: 111 WK), Tumor Site: Type of Lesion: SPLEEN: HEMANGIOMA OR HEMANGIOSARCOMA): equivocal
